Measurements from PMC3914206.

Assays:
Assay type in all cases: binding
Details in all cases: Compound Concentration 10 µM
panel of 442 kinases [1] = target: T1, panel of 442 kinases (Homo sapiens, UniProt P15735)
T1 construct: purchased KINOMEscan
T1 sequence (P15735 1-406): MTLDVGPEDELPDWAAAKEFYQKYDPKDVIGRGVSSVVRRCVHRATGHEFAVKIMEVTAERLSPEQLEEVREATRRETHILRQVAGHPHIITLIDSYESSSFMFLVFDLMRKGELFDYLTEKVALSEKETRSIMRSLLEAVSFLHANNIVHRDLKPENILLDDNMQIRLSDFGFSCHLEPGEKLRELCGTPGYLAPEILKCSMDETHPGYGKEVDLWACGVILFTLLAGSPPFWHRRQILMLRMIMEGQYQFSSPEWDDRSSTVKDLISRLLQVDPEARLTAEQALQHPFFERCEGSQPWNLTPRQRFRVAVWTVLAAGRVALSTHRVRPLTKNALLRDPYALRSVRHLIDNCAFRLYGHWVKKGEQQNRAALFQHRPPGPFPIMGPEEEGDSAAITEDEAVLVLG
Description: (§1) We assessed the selectivity of members of this scaffold using the KINOMEscan methodology across a near comprehensive panel of 442 kinases [[18,27]].

panel of 442 kinases [2] = target: T2, panel of 442 kinases (Homo sapiens, UniProt Q9BRS2)
T2 construct: purchased KINOMEscan
T2 sequence (Q9BRS2 1-568): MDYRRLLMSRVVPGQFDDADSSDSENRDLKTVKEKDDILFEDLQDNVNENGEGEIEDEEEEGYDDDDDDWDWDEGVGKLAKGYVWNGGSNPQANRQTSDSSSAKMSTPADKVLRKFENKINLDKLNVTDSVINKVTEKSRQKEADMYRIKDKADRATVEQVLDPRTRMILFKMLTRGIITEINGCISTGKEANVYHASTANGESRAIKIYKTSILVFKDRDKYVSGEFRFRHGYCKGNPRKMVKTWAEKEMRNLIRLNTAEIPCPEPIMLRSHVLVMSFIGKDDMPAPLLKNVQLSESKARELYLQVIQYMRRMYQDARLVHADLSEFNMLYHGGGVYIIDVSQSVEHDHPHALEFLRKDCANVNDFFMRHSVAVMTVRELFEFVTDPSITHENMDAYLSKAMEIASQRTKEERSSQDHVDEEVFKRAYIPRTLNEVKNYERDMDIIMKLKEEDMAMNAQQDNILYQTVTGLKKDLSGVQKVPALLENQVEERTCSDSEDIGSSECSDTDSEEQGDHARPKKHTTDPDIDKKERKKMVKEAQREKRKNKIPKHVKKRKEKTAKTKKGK
Description: as §1

panel of 442 kinases [3] = target: T3, panel of 442 kinases (Homo sapiens, UniProt Q16584)
T3 construct: purchased KINOMEscan
Description: as §1

T3 sequence (Q16584 whole entry): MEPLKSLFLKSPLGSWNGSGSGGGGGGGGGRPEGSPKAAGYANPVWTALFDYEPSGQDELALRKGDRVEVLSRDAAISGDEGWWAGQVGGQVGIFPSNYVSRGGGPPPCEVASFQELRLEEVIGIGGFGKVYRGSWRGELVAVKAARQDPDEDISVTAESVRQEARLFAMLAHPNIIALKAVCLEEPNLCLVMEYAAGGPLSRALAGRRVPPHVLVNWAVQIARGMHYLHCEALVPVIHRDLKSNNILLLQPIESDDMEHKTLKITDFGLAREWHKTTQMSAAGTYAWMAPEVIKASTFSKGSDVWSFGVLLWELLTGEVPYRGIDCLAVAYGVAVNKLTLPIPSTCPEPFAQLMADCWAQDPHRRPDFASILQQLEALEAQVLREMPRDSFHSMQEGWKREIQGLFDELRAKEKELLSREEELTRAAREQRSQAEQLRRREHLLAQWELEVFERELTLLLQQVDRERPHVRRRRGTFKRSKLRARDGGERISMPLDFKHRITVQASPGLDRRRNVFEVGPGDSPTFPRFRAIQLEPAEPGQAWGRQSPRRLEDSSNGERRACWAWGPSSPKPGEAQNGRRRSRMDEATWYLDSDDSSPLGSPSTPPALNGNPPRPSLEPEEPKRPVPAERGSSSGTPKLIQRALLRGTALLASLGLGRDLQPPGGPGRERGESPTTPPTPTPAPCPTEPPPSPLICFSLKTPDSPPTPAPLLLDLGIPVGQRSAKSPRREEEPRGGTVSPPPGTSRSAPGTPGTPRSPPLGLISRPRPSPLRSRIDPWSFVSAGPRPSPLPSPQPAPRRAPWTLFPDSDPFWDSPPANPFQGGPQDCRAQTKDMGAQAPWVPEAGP

| Structure (SMILES) | KINOMEscan: PHKG2 (panel of 442 kinases [1]) | KINOMEscan: RIOK1 (panel of 442 kinases [2]) | KINOMEscan: MLK3 (panel of 442 kinases [3]) |
| --- | --- | --- | --- |
| COc1cc(C(=O)N2CCC(N3CCN(C)CC3)CC2)ccc1Nc1ncc2c(n1)N1CCc3cccc(c31)C(=O)N2C [Compound 24] | 47 |  |  |
| CCOc1cc(C(=O)N2CCC(N3CCN(C)CC3)CC2)ccc1Nc1ncc2c(n1)N(C1CCCC1)c1ccccc1C(=O)N2C [Compound 26] | 90 | 100 | 100 |
| COc1cc(C(=O)N2CCC(N3CCN(C)CC3)CC2)ccc1Nc1ncc2c(n1)N(C1CCCC1)c1ccccc1C(=O)N2C [Compound 25, 11-cyclopentyl-2-((2-methoxy-4-(4-(4-methylpiperazin-1-yl)piperidine-1-carbonyl)phenyl)amino)-5-methyl-5H-benzo[e]pyrimido[5,4-b][1,4]diazepin-6(11H)-one] | 68 | 76 | 100 |
| COc1cc(C(=O)N2CCC(N3CCN(C)CC3)CC2)ccc1Nc1ncc2c(n1)N(C)c1ccccc1C(=O)N2C [15 (LRRK2-IN-1)] | 33 | 100 | 100 |
